Data set [1] relates to POROL (Portulaca oleracea). Kind of data set: Outdoor plot trial, post-emergence treatment, visual evaluation of herbicidal activity. The data set is classed as in vivo. The note with it: outdoors. On the procedure: (§1) Outdoors, crop plants were grown on plots of a size of from 5 to 10 m^2 on various soils and under various climatic conditions, and the natural presence of harmful plants and/or their seeds in the soil was utilized for the experiments. The treatment with the compositions according to the invention or the herbicides A) and B) applied individually was carried out after emergence of the harmful and the crop plants, in general at the 2- to 4-leaf stage. The active compounds or active compound combinations, formulated as WG, WP or EC, was carried out by the post-emergence method. After 2 to 8 weeks, visual evaluation was carried out in comparison with an untreated comparative group. […] In addition, the herbicidal activities of the compositions according to the invention exceed the expected values according to Colby.
(§2) If the observed activity values of the mixtures already exceed the formal sum of the values for the trials with individual applications, they also exceed the expected value according to Colby which is calculated using the following formula (cf. S. R. Colby; in Weeds 15 (1967) pp. 20 to 22):
(§3) The figures denote: • A, B=Activity of Components A and B in percent, at a dosage of a and b gram of ai/ha, respectively. • E=Expected value in % at a dosage of a+b gram of ai/ha.

The subject of the next data set is TRZDU (Triticum davam). Put plainly: Outdoor plot trial, post-emergence treatment, damage to crop plant. The note with it: in vivo. On the procedure: as §1
Another data set relates to BRAPL. Put plainly: Outdoor plot trial, post-emergence treatment, visual evaluation of herbicidal activity. The format is in vivo. The following applies: Example B.VII, 300 g of ai/ha, outdoors. The method, then:
as §1, §2, §3

The test system of the next data set is ZEAMX (Zea mays). Kind of data set: Outdoor plot trial, post-emergence treatment, damage to crop plant. The note with it: Example B.VII, 300 g of ai/ha. The format is in vivo. On the procedure:
as §1

Data set [2] relates to PHBPU (Pharbitis purpurea). Put plainly: Outdoor plot trial, post-emergence treatment, visual evaluation of herbicidal activity. The following applies: outdoors. The format is in vivo. On the procedure:
as §1, §2, §3

The subject of another data set is KCHSC (Kochia scoparia). The data set is described as above. The data set is classed as in vivo. The note with it: Example B.I, outdoors. On the procedure: as §1, §2, §3
The test system of data set [3] is CHEAL (Chenopodium album). The data set is described as above. The format is in vivo. The note with it: outdoors. The method, then: as §1, §2, §3
For the next data set, the system named is HORVS (Hordeum vulgaris). Kind of data set: Outdoor plot trial, post-emergence treatment, damage to crop plant. The format is in vivo. The note with it: Example B.VI, 100 g of ai/ha. The method, then:
as §1

Results on eight compounds are retold here after patent US7056863B1, “Synergistic herbicidal compositions herbicides from the group of the hydroxyphenylpyruvate dioxygenase inhibitors” (Aventis CropScience GmbH, priority 1999, dated 2006).

As for `CS(=O)(=O)c1ccc(C(=O)C2C(=O)CCCC2=O)c(Cl)c1COCC(F)(F)F` [Compound A4], in data set [1] (Example B.VIII, 25 g of ai/ha), the POROL found worked out at 5%. Also, the TRZDU found in the data set on TRZDU (Triticum davam) is recorded as 5%.
`N#Cc1cc(Br)c(O)c(Br)c1` [Compound B5, bromoxynil]: the BRAPL found in the data set on BRAPL stood at 0%. In the data set with ZEAMX (Zea mays), the ZEAMX found came out at 0%.
Take `COc1cc(OC)nc(NC(=O)NS(=O)(=O)c2ccc(NC=O)cc2C(=O)N(C)C)n1` [Compound B1]: the PHBPU found in data set [2] (Example B.II, 30 g of ai/ha) came out at 20%. The POROL found in data set [1] (Example B.V, 30 g of ai/ha) turned out to be 43%. Also, the KCHSC found with KCHSC (Kochia scoparia) (30 g of ai/ha) turned out to be 30%; with KCHSC (Kochia scoparia) (60 g of ai/ha), 33%.
In the case of `COC(=O)c1ccc(I)cc1S(=O)(=O)[N-]C(=O)Nc1nc(C)nc(OC)n1.[Na+]` [Compound B4], the POROL found in data set [1] (Example B.VIII, 2.5 g of ai/ha) is 20%. Besides, the TRZDU found in the data set with TRZDU (Triticum davam) is 15%.
With `CP(=O)(O)CCC(N)C(=O)O` (stereo not shown) [Compound B2, glufosinate], in data set [2] (Example B.III, 500 g of ai/ha), the PHBPU found is 43%. For the same compound, the CHEAL found in data set [3] (Example B.IV, 500 g of ai/ha) was determined as 60%.
On to `Cc1cc(C(=O)C2C(=O)CCCC2=O)c(C)c2c1S(=O)(=O)CCC2Oc1ncccn1` (stereo not shown) [Compound A2], for which the PHBPU found is reported as 65% in data set [2] (Example B.II, 50 g of ai/ha) and 45% in data set [2] (Example B.III, 100 g of ai/ha). In addition, the POROL found in data set [1] (Example B.V, 100 g of ai/ha) worked out at 0%. The CHEAL found in data set [3] (Example B.IV, 100 g of ai/ha) turned out to be 34%.
As to `CC(C)(F)c1nc(N)nc(NC(CCc2ccccc2)C2CCC2)n1` (stereo not shown) [Compound B3], the CHEAL found in data set [3] (Example B.VI, 100 g of ai/ha) was 30%. Also, the HORVS found with HORVS (Hordeum vulgaris) amounted to 0%.
Consider `CS(=O)(=O)c1ccc(C(=O)C2C(=O)CCCC2=O)c(Cl)c1C1=NOCC1` [Compound A1], for which the KCHSC found in the data set with KCHSC (Kochia scoparia) (25 g of ai/ha) was found to be 28%.
